Test results: PMC10044640, “Antimicrobial Peptides Designed against the Ω-Loop of Class A β-Lactamases to Potentiate the Efficacy of β-Lactam Antibiotics” (Antibiotics, 2023)
Like-named read-outs stand apart in the source and are kept apart here.

Legend:
[1] = tested on: E. coli CS109 + pBAD-SHV-14; type: cell-based, Escherichia coli
[2] = tested on: E. coli CS109 + pBAD-TEM1; type: cell-based, Escherichia coli; conditions: CS109 + pBAD-TEM1, no peptide; broth microdilution, MHB, ~10^5 cells/well, OD600
[3] = tested on: E. coli CS109 + pBAD-SHV-14; type: cell-based, Escherichia coli; conditions: E. coli CS109 + pBAD-SHV-14 (arabinose-induced), no peptide; HT-SPOTi
[4] = tested on: E. coli CS109 + pBAD-TEM1; type: cell-based, Escherichia coli; conditions: E. coli CS109 + pBAD-TEM1 (arabinose-induced), no peptide; HT-SPOTi
[5] = tested on: SHV-14; assay: Kinetics of β-lactam hydrolysis with or without peptides; type: biochemical, Klebsiella pneumoniae; conditions: SHV-14 0.46 μM, no peptide, 25 °C; for Km: 10 mM Tris-HCl, 300 mM NaCl pH 7.5, 1 μg/mL BSA, substrate 20–500 μM, read-out: Km, β-lactam substrate alone; for kcat, β-lactam substrate alone: pH 7.5
Method: (§1) The N-terminal 6X histidine-tagged proteins (SHV-14 and TEM-1) were expressed from the respective plasmid constructs already available in the laboratory and were purified by Ni-NTA affinity chromatography using an AKTA prime plus (GE Healthcare, Piscataway, NJ, USA) as described previously. Nitrocefin hydrolysis was used to validate the β-lactamase activity of both proteins.
(§2) Assessment of enzyme activities was carried out by calculating the kinetic parameters [Michaelis–Menten constants (Km and Vmax), turn-over number (kcat), and catalytic efficiency (kcat/Km)] with various β-lactam substrates in the presence of the peptides as described previously. The hydrolysis reaction was carried out at 25 °C in 10 mM Tris-HCl, 300 mM NaCl (pH 7.5) buffer supplemented with 1 μg mL^−1 bovine serum albumin for protein stability. The enzyme concentrations (0.46 μM: SHV-14 and 0.42 μM: TEM-1) were taken to determine the initial rate constants at varying substrate concentrations (20–500 μM). The values were calculated using the online curve-fitting tool (https://www.mycurvefit.com, MyAssays Ltd., Brighton, UK, accessed on 25 May 2022).

[6] = tested on: M. smegmatis MC2 155; assay: HT-SPOTi MIC of β-lactams with or without peptides; type: cell-based, Mycobacterium smegmatis; conditions: no peptide, triplicate
[7] = tested on: E. coli CS109; assay: Broth microdilution MIC; type: cell-based, Escherichia coli; conditions: E. coli CS109, no peptide; broth microdilution (CLSI), MHB, ~10^5 cells/well, OD600; triplicate
[8] = tested on: K. pneumoniae; assay: HT-SPOTi MIC of β-lactams with or without peptides; type: cell-based, Klebsiella pneumoniae; conditions: for MIC Value Antibiotics, β-lactam alone: K. pneumoniae, no peptide, triplicate
[9] = tested on: E. coli CS109; assay: HT-SPOTi MIC of β-lactams with or without peptides; type: cell-based, Escherichia coli; conditions: for MIC Value Antibiotics, β-lactam alone: E. coli CS109, no peptide, HT-SPOTi agar, ~10^3 CFU/well, triplicate
[10] = tested on: M. tuberculosis H37Rv; assay: HT-SPOTi MIC of ampicillin with or without peptides; type: cell-based; conditions: Mycobacterium tuberculosis, MTB H37Rv, control row of Table S2, read-out: MIC value, control drug
[11] = tested on: Gram-negative strains (E. coli CS109, K. pneumoniae); assay: HT-SPOTi, cephalosporins with peptides; type: cell-based, Escherichia coli; Klebsiella pneumoniae; conditions: strain not given
Method: HT-SPOTi (high-throughput spot culture growth inhibition) assay was used to evaluate the whole cell phenotypic effect of peptides against a selection of Gram-negative and acid-fast bacterial strains in the presence of β-lactam antibiotics as previously described. The distribution of the molten agar media into the 96 wells was achieved using the Multidrop Combi microplate dispenser (Thermo-Fisher Scientific). Plates were left for 5 min for the agar to set, and a diluted inoculum of bacteria was applied (2 µL of ∼10^3 CFU) into each well by either the use of a multi-channel pipettor or by using the Multidrop Combi. DMSO was taken as no antibiotic control and kanamycin as non-β-lactam drug control. Unless otherwise specified, all the experiments were performed in triplicate.
To check the inhibitory activity of peptides and comprehend particular structure–activity relationships, HT-SPOTi assay was performed. The whole-cell phenotypic effect of the 10 pentapeptides was ascertained in combination with β-lactam antibiotics in E. coli CS109 and K. pneumoniae.

[12] = biological target: T1, TEM-1 (Escherichia coli, UniProt P62593); assay: Kinetics of β-lactam hydrolysis with or without peptides; type: biochemical
T1 construct: The full-length constructs (blaSHV-14 and blaTEM-1) were cloned and expressed in pBAD18-Cam (Cam^R) vector; 6xHis (N); made in house; host or cells: E. coli BL21 (DE3) pLysS, pET28a(+)
Method: as §1, §2

[13] = tested on: CCN1CCN(C(=O)N[C@@H](C(=O)N[C@@H]2C(=O)N3[C@@H]2SC(C)(C)[C@@H]3C(=O)O)c2ccccc2)C(=O)C1=O; assay: as above; type: biochemical, Escherichia coli; conditions: other: TEM-1 0.42 μM, no peptide, 25 °C, 10 mM Tris-HCl, 300 mM NaCl pH 7.5, 1 μg/mL BSA, substrate 20–500 μM
Method: as §1, §2

[14] = tested on: CC1(C)S[C@@H]2[C@H](NC(=O)[C@H](N)c3ccc(O)cc3)C(=O)N2[C@H]1C(=O)O; assay: as above; type: biochemical, Escherichia coli; conditions: other: TEM-1 0.42 μM, no peptide, 25 °C, 10 mM Tris-HCl, 300 mM NaCl pH 7.5, 1 μg/mL BSA, substrate 20–500 μM
Method: as §1, §2

[15] = CS109 + pBAD-SHV-14, no peptide, broth microdilution, MHB, ~10^5 cells/well, OD600
[16] = TEM-1 0.42 μM, no peptide; 25 °C, pH 7.5

T1 sequence (P62593 24-286 limits assumed): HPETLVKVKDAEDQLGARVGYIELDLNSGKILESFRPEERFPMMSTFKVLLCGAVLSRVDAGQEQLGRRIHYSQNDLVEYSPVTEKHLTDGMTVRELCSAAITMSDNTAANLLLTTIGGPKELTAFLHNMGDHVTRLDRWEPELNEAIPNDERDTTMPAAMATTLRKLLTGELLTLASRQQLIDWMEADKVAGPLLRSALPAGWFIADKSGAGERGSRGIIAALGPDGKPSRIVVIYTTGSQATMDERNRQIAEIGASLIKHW

CCN1CCN(C(=O)N[C@@H](C(=O)N[C@@H]2C(=O)N3[C@@H]2SC(C)(C)[C@@H]3C(=O)O)c2ccccc2)C(=O)C1=O [Pip, Piperacillin]
MIC Value of Antibiotics, β-lactam alone [1, 15]: 125 µg/mL
MIC Value of Antibiotics, β-lactam alone [2]: 125 µg/mL
MIC Value of Antibiotics, β-lactam alone [3]: 64 µg/mL
MIC Value of Antibiotics, β-lactam alone [4]: 64 µg/mL
Km [5]: 98.7 ± 12.2 µM
kcat, β-lactam substrate alone [5]: 432.09 ± 5.97 s⁻¹
MIC Value Antibiotics, β-lactam alone [6]: >250 µg/mL
MIC Value of Antibiotics, β-lactam alone [7]: 16 µg/mL
MIC Value Antibiotics, β-lactam alone [8]: 64 µg/mL
MIC Value Antibiotics, β-lactam alone [9]: 16 µg/mL

NNC(=O)c1ccncc1 [Isoniazid]
MIC [10]: 2 µg/mL

CC(C)(O/N=C(\C(=O)N[C@@H]1C(=O)N2C(C(=O)[O-])=C(C[n+]3ccccc3)CS[C@H]12)c1csc(N)n1)C(=O)O [ceftazidime]
levels of resistance to the cephalosporin with peptides [11]: remained unaltered

CC1=C(C(=O)O)N2C(=O)[C@@H](NC(=O)[C@H](N)c3ccc(O)cc3)[C@H]2SC1 [cefadroxil]
levels of resistance to the cephalosporin with peptides [11]: remained unaltered

CO/N=C(\C(=O)N[C@@H]1C(=O)N2C(C(=O)[O-])=C(C[N+]3(C)CCCC3)CS[C@H]12)c1csc(N)n1 [cefepime]
levels of resistance to the cephalosporin with peptides [11]: remained unaltered

CC1(C)S[C@@H]2[C@H](NC(=O)[C@H](N)c3ccccc3)C(=O)N2[C@H]1C(=O)O [Amp, Ampicillin]
MIC Value of Antibiotics, β-lactam alone [1, 15]: 64 µg/mL
MIC Value of Antibiotics, β-lactam alone [2]: 32 µg/mL
MIC Value of Antibiotics, β-lactam alone [3]: 32 µg/mL
MIC Value of Antibiotics, β-lactam alone [4]: 16 µg/mL
Km [5]: 187 ± 12.2 µM
kcat, β-lactam substrate alone [5]: 644.95 ± 10.97 s⁻¹
MIC Value Antibiotics, β-lactam alone [6]: 4 µg/mL
MIC Value of Antibiotics, β-lactam alone [7]: 8 µg/mL
MIC Value Antibiotics, β-lactam alone [8]: 32 µg/mL
kcat, β-lactam substrate alone [12, 16]: 290 ± 85.55 s⁻¹
Km ([12]; read-out: Km, β-lactam substrate alone; TEM-1 0.42 μM, no peptide; 25 °C, 10 mM Tris-HCl, 300 mM NaCl pH 7.5, 1 μg/mL BSA; substrate 20–500 μM): 66 ± 12.2 µM
MIC Value Antibiotics, β-lactam alone [9]: 4 µg/mL

CCN1CCN(C(=O)N[C@@H](C(=O)N[C@@H]2C(=O)N3C(C(=O)O)=C(CSc4nnnn4C)CS[C@H]23)c2ccc(O)cc2)C(=O)C1=O [cefoperazone]
levels of resistance to the cephalosporin with peptides [11]: remained unaltered

TEM-1 (Escherichia coli)
Km [13]: 136.32 ± 12.16 µM
kcat [13]: 331 ± 12.2 s⁻¹
Km [14]: 105.09 ± 12.16 µM
kcat [14]: 427 ± 21 s⁻¹

CC1(C)S[C@@H]2[C@H](NC(=O)[C@H](N)c3ccc(O)cc3)C(=O)N2[C@H]1C(=O)O [Amx, Amoxicillin]
MIC Value of Antibiotics, β-lactam alone [2]: 64 µg/mL
MIC Value of Antibiotics, β-lactam alone [4]: 32 µg/mL
Km [5]: 112 ± 12.2 µM
kcat, β-lactam substrate alone [5]: 416.95 ± 5.02 s⁻¹
MIC Value Antibiotics, β-lactam alone [6]: 2 µg/mL
MIC Value of Antibiotics, β-lactam alone [7]: 16 µg/mL
MIC Value Antibiotics, β-lactam alone [8]: 64 µg/mL
MIC Value Antibiotics, β-lactam alone [9]: 8 µg/mL

Penicillin
MIC Value of Antibiotics, β-lactam alone [1]: 500 µg/mL
MIC Value of Antibiotics, β-lactam alone [3]: 250 µg/mL
MIC Value of Antibiotics, β-lactam alone [4]: 64 µg/mL
Km [5]: 144 ± 4.43 µM
kcat, β-lactam substrate alone [5]: 586.95 ± 15.97 s⁻¹
MIC Value of Antibiotics, β-lactam alone [7]: 64 µg/mL
MIC Value Antibiotics, β-lactam alone [8]: 32 µg/mL
Km ([12]; TEM-1 0.42 μM, no peptide; 25 °C, 10 mM Tris-HCl, 300 mM NaCl pH 7.5, 1 μg/mL BSA; substrate 20–500 μM; read-out: Km, β-lactam substrate alone): 67.2 ± 4.43 µM
kcat, β-lactam substrate alone [12, 16]: 386.95 ± 15.97 s⁻¹
MIC Value Antibiotics, β-lactam alone [9]: 32 µg/mL

NC[C@H]1O[C@H](O[C@H]2[C@H](O)[C@@H](O[C@H]3O[C@H](CO)[C@@H](O)[C@H](N)[C@H]3O)[C@H](N)C[C@@H]2N)[C@H](O)[C@@H](O)[C@@H]1O [Kanamycin]
MIC Value, non-β-lactam drug control ([8]; Table 3b control row, one value printed under each column Pen, Amp, Amx, Pip): 64 µg/mL
MIC Value, non-β-lactam drug control ([9]; Table 4 control row, construct not given, one value under each column Pen, Amp, Amx, Pip, HT-SPOTi): 64 µg/mL

N[C@@H](C(=O)N[C@@H]1C(=O)N2C(C(=O)O)=C(Cl)CS[C@H]12)c1ccccc1 [cefaclor]
levels of resistance to the cephalosporin with peptides [11]: remained unaltered
